Structures can show the parent of a compound that is named as a salt. Where two headings read alike, the source gives them in different places.
How the values were obtained:
[1] = system: SUDHL10; assay: Induction of caspase-3/7 activity (Caspase-Glo 3/7), SUDHL10; assay type: cell-based; conditions: caspase-3/7 induction, SUDHL10 cells, 3 h treatment, median
Procedure, shortened: (§1)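 DLBCL cells treated with compounds for 3 h at 37 °C, then caspase-3/7 activity read by Caspase-Glo 3/7 luminescence. Medium-only background subtracted; EC50 fitted with C0 fixed at 1 and top set to the reference compound's maximal induction.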

[2] = system: SUDHL10; assay: Anti-proliferative effect (CellTiter-Glo, 72 h), SUDHL10; assay type: cell-based; conditions: SUDHL10 cells, antiproliferation, median, read-out: Antiproli SUDHL10 [M] (median)
Procedure: Assessment of the Anti-Proliferative Effect of Compounds in Different Cell Lines
The impact of compounds on the proliferation of different cell lines was assessed using the CellTiter-Glo® Luminescent Cell Viability reagent from Promega (G7573). Of note, SUDHL10 and SUDHL5 (DLBCL), NCI-H929 (Multiple Myeloma), A2780 (ovarian carcinoma) as well as MV-4-11(AML) cells are sensitive to MCL-1 inhibition.
In parallel, cells were plated in a reference (day 0) plate for time zero determination.
Rim wells were excluded. The cells were incubated for 72 h hours in a humidified incubator at 37° C. The day 0 plate was measured by adding 30 μl/well of CTG solution (CellTiter-Glo® Luminescent Cell Viability reagent, Promega G7573) to time zero wells in the reference plate followed by a 10 minutes incubation and luminescence reading at 0.1 ms, using the PHERAstar FS microplate reader (BMG Labtech).
After 72 h incubation, the treated plates were measured in the same way as the day 0 plate mentioned above.

[3] = system: SUDHL5; assay: Induction of caspase-3/7 activity (Caspase-Glo 3/7), SUDHL5; assay type: cell-based; conditions: caspase-3/7 induction, SUDHL5 cells, 3 h treatment, median
Procedure, shortened: as §1

[4] = system: SUDHL5; assay: Induction of cytotoxicity (CellTiter-Glo, 5 h), SUDHL5
Procedure: Therefore, cytotoxicity assays were run in parallel in SUDHL5 and SUDHL10 cells.
The different cell lines were plated in culture medium (RPMI 1640 [GIBCO #22400-089]supplemented with 10% Fetal Bovine Serum) at a density of 3.300 cells in 30 μl/well in a sterile, solid black, flat bottom, polystyrene, TC-treated 384-well microplate (Corning #3571) using Multidrop Combi Reagent Dispenser. As a control, medium without cells was also added to the plate. Cells were incubated in a humidified incubator at 37° C. overnight. On the next day, the cells were treated with compounds (stock solution, 10 mM in DMSO) using the HP D300 Digital Dispenser in a concentration range of 3.3×10e-5 M (33 μM) to 5×10e-9 M (5 nM) in a single-dot curve with at least 16 dilutions and a DMSO concentration of 0.33%. Rim wells were excluded. The cells were incubated for 5 h hours in a humidified incubator at 37° C. After this incubation, 30 μl of CellTiter-Glo@ Luminescent Cell Viability reagent (Promega, G7573) was added to each well using the Multidrop Combi Reagent Dispenser, followed by 15 min incubation on a shaker at room temperature. Finally, luminescence was read at 0.1 ms, with a gain of 3000 using the PHERAstar FS microplate reader (BMG Labtech).
The Bella DRC Master Sheet was used to calculate IC50s, with fixed CI=0 and C0=1.

[5] = molecular target: MCL-1 (Homo sapiens, UniProt Q07820); assay: Protein-protein interaction assay MCL-1/Noxa BH3 peptide (MCL-1 assay), TR-FRET; assay type: binding; conditions: MBP-MCL-1 / Noxa BH3-derived peptide, median
Procedure, shortened: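 TR-FRET, 665/622 nm emission ratio (excitation 330–350 nm), measured MCL-1/Noxa complex formation. 1 nM MBP-MCL-1, 50 mM Tris/HCl pH 7, 0.1% BGG, 2 mM DTT. Incubation 1 h at 22 °C, then overnight at 4 °C. IC50 by 4-parameter regression, normalized to DMSO (0%) and no-MCL-1 (100%) controls.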

[6] = system: SUDHL10; assay: Induction of cytotoxicity (CellTiter-Glo, 5 h), SUDHL10
[7] = system: SUDHL5; assay: Anti-proliferative effect (CellTiter-Glo, 72 h), SUDHL5; assay type: cell-based; conditions: SUDHL5 cells, antiproliferation, median, read-out: Antiproli SUDHL5 [M] (median)
Procedure, shortened: (§2)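 Cells were treated with compounds for 72 h at 37 °C in a humidified incubator, and viability was measured by CellTiter-Glo luminescence. A parallel day 0 plate, read the same way, gave the time zero baseline.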

[8] = system: A2780; assay: Anti-proliferative effect (CellTiter-Glo, 72 h), A2780; assay type: cell-based; conditions: A2780 cells, median, read-out: IC50 antiproliferation assay A2780 [M] (median)
Procedure, shortened: as §2

[9] = Homo sapiens, SU-DHL10, 72 h, 72 h incubation
[10] = read-out: Cytotox SUDHL5 [M] (median), SUDHL5 cells, cytotoxicity induction, CellTiter-Glo, 5 h incubation, median
[11] = read-out: Cytotox SUDHL10 [M] (median), SUDHL10 cells, cytotoxicity induction, CellTiter-Glo, 5 h incubation, median
[12] = Homo sapiens, SU-DHL10, 72 h, 72 h
[13] = Homo sapiens, SU-DHL-5, 5 h, read-out: Cytotox SUDHL5 [M] (median), SUDHL5 cells, cytotoxicity induction, CellTiter-Glo, 5 h, median
[14] = Homo sapiens, SU-DHL10, 5 h, read-out: Cytotox SUDHL10 [M] (median), SUDHL10 cells, cytotoxicity induction, CellTiter-Glo, 5 h, median
[15] = Homo sapiens, SU-DHL-5, 72 h, 72 h
[16] = Homo sapiens, SU-DHL-5, 5 h, read-out: Cytotox SUDHL5 [M] (median), SUDHL5 cells, cytotoxicity induction, CellTiter-Glo, 5 h incubation, median
[17] = Homo sapiens, SU-DHL10, 5 h, read-out: Cytotox SUDHL10 [M] (median), SUDHL10 cells, cytotoxicity induction, CellTiter-Glo, 5 h incubation, median
[18] = Homo sapiens, SU-DHL-5, 72 h, 72 h incubation

Sequence of MCL-1 (Q07820 whole entry): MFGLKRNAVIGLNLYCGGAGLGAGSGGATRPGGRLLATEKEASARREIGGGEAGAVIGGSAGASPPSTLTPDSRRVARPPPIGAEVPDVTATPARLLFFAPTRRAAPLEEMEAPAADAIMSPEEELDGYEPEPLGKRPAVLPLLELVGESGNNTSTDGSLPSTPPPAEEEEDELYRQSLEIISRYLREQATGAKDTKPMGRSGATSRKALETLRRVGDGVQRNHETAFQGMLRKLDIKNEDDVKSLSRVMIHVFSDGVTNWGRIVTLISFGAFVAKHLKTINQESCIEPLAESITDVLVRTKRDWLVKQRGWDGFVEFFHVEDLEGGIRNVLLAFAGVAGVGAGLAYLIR

Row | SMILES | EC50 [1] [µM] | IC50 [2, 9] [M] | EC50 [3] [µM] | IC50 [5] [µM] | IC50 ([7]; 72 h incubation) [M] | IC50 [8] [M] | IC50 ([2]; 72 h incubation) [M] | IC50 ([8]; Homo sapiens, A2780, 72 h) [M] | EC50 ([1]; Homo sapiens, SU-DHL10, 3 h) [µM] | IC50 [2, 12] [M] | EC50 ([3]; Homo sapiens, SU-DHL-5, 3 h) [µM] | IC50 [7, 15] [M] | IC50 [7, 18] [M] | IC50 [4, 10] [M] | IC50 [6, 11] [M] | IC50 [4, 13] [M] | IC50 [6, 14] [M] | IC50 [4, 16] [M] | IC50 [6, 17] [M]
1 | Cc1nn(CC(F)(F)F)c2c1-c1cccc3c(CCCOc4cccc5c4CCCC5)c(C(=O)O)n(c13)CCCCOC2 (single isomer, unassigned; enantiomer 2) [Example 163, 3-methyl-7-[3-(5,6,7,8-tetrahydronaphthalen-1-yloxy)propyl]-1-(2,2,2-trifluoroethyl)-1,10,11,12,13,15-hexahydropyrazolo[4′,3′:9,10][1,6]oxazacycloundecino[8,7,6-hi]indole-8-carboxylic acid-N-ethylethanamine Salt (Enantiomer 2)] | > 33 | 6.35e-06 | > 33 | 0.637 | 1.17e-05 | 2.75e-05 |  |  |  |  |  |  |  | 2.93e-05 | > 3.3e-05 |  |  |  | 
2 | CCc1c2c(nn1CCN1CCOCC1)COCCCCn1c(C(=O)O)c(CCCOc3cccc4ccccc34)c3cccc-2c31 (single isomer, unassigned; enantiomer 1) [Example 202, 3-ethyl-2-[2-(morpholin-4-yl)ethyl]-7-[3-(naphthalen-1-yloxy)propyl]-2,10,11,12,13,15-hexahydropyrazolo[4′,3′:9,10][1,6]oxazacycloundecino[8,7,6,6-hi]indole-8-carboxylic Acid (Enantiomer 1)] | > 33 |  | 30.2 | 0.0462 | 2.52e-05 |  | 1.74e-05 | 3.17e-05 |  |  |  |  |  | > 3.3e-05 | 2.87e-05 |  |  |  | 
3 | CCCc1nn(C)c2c1-c1c(C)ccc3c(CCCOc4cccc5ccccc45)c(C(=O)O)n(c13)CCCN(C)C2 (single isomer, unassigned; enantiomer 2) [Example 197, 7,9,12-trimethyl-1-[3-(naphthalen-1-yloxy)propyl]-1-propyl-4,5,6,7,8,9-hexahydropyrazolo[3′,4′:7,8][1,5]diazecino[9,10,1-hi]indole-2-carboxylic acid-N-ethylethanamine Salt (Enantiomer 2)] | > 33 |  | 28.7 | 0.104 | 1.78e-05 | 1.49e-05 | 8.15e-06 |  |  |  |  |  |  | 1.93e-05 | 1.55e-05 |  |  |  | 
4 | CCCc1nn(C)c2c1-c1c(C)ccc3c(CCCOc4cccc5ccccc45)c(C(=O)O)n(c13)CCCCOC2 (racemic) [Example 187, (rac)-1,4-dimethyl-7-[3-(naphthalen-1-yloxy)propyl]-3-propyl-1,10,11,12,13,15-hexahydropyrazolo[4′,3′:9,10][1,6]oxazacycloundecino[8,7,6-hi]indole-8-carboxylic Acid] |  | 1.41e-05 |  | 0.00261 |  | > 3.3e-05 |  | 2.17e-05 | 13.3 |  | 3.71 |  | 7.27e-06 |  |  |  |  | 3.85e-06 | 1.07e-05

More lines, in order of falling IC50 [5], values ahead:

Row | EC50 [1] [µM] | IC50 [2, 9] [M] | EC50 [3] [µM] | IC50 [5] [µM] | IC50 ([7]; 72 h incubation) [M] | IC50 [8] [M] | IC50 ([2]; 72 h incubation) [M] | IC50 ([8]; Homo sapiens, A2780, 72 h) [M] | EC50 ([1]; Homo sapiens, SU-DHL10, 3 h) [µM] | IC50 [2, 12] [M] | EC50 ([3]; Homo sapiens, SU-DHL-5, 3 h) [µM] | IC50 [7, 15] [M] | IC50 [7, 18] [M] | SMILES | IC50 [4, 10] [M] | IC50 [6, 11] [M] | IC50 [4, 13] [M] | IC50 [6, 14] [M] | IC50 [4, 16] [M] | IC50 [6, 17] [M]
5 | > 33 |  | > 33 | 0.669 | 2e-05 |  | 8.12e-06 | 1.9e-05 |  |  |  |  |  | Cc1ccc2c(C(C)CCOc3cccc4ccccc34)c(C(=O)O)n3c2c1-c1c(C)nn(C)c1COCCCC3 (single isomer, unassigned) [Example 257, 1,3,4-trimethyl-7-[4-(naphthalen-1-yloxy)butan-2-yl]-1,10,11,12,13,15-hexahydropyrazolo[4′,3′:9,10][1,6]oxazacycloundecino[8,7,6-hi]indole-carboxylic Acid] | > 3.3e-05 | > 3.3e-05 |  |  |  | 
6 |  |  |  | 0.515 |  |  |  | > 3.3e-05 | > 33 | 1.14e-05 | > 33 | 3.18e-05 |  | Cn1nc(CN2CCCCC2=O)c2c1COCCCCn1c(C(=O)O)c(CCCOc3cccc4ccccc34)c3cccc-2c31 (single isomer, unassigned; enantiomer 1) [Example 326, 1-methyl-7-[3-(naphthalen-1-yloxy)propyl]-3-[(2-oxopiperidin-1-yl)methyl]-1,10,11,12,13,15-hexahydropyrazolo[4′,3′:9,10][1,6]oxazacycloundecino[8,7,6-hi]indole-carboxylic Acid (Enantiomer 1)] |  |  | > 3.3e-05 | > 3.3e-05 |  | 
7 | > 33 |  | > 33 | 0.322 | 2.14e-05 | 2.07e-05 | 1.63e-05 |  |  |  |  |  |  | Cn1nc(CN2CCOCC2)c2c1COCC=CCn1c(C(=O)O)c(CCCOc3cccc4ccccc34)c3cccc-2c31 (single isomer, unassigned; enantiomer 2) [Example 134, (E)-1-methyl-3-(morpholin-4-ylmethyl)-7-[3-(naphthalen-1-yloxy)propyl]-1,13,15-tetrahydropyrazolo[4′,3′:9,10][1,6]oxazacycloundecino[8,7,6-hi]indole-8-carboxylic acid-N-ethylethanamine Salt (Enantiomer 2)] | > 3.3e-05 | > 3.3e-05 |  |  |  | 
8 |  |  |  | 0.042 |  |  |  | 1.54e-05 | 23.1 | 1.13e-05 | 20.2 | 1.14e-05 |  | Cc1ccc2c(C(C)CCOc3cccc4c3CCCC4)c(C(=O)O)n3c2c1-c1c(nn(C)c1C)COCCCC3 (racemic) [Example 363, 11,12,13-trimethyl-1-(4-((5,6,7,8-tetrahydronaphthalen-1-yl)oxy)butan-2-yl)-4,5,6,7,9,11-hexahydropyrazolo[4′,3′:9,10][1,6]oxaazacycloundecino[8,7,6-hi]indole-2-carboxylic Acid (Mixture of Stereoisomers)] |  |  | 1.68e-05 | 2.97e-05 |  | 
9 |  | 4.14e-06 |  | 0.00225 |  | 2.39e-05 |  | > 3.3e-05 | 5.89 |  | 1.46 |  | 2.43e-06 | COCc1nn(C)c2c1-c1cccc3c(CCCOc4cccc5ccccc45)c(C(=O)O)n(c13)CCCCN(C)C2 (racemic) [Example 183, (rac)-3-(methoxymethyl)-1,14-dimethyl-7-[3-(naphthalen-1-yloxy)propyl]-10,11,12,13,14,15-hexahydro-1H-pyrazolo[3′,4′:8,9][1,6]diazacycloundecino[10,11,1-hi]indole-8-carboxylic Acid] |  |  |  |  | 1.88e-06 | 5.55e-06
10 | 7.76 |  | 2.82 | 0.00146 | 3.39e-06 |  | 9.83e-06 | 2.42e-05 |  |  |  |  |  | CCCc1nn(C)c2c1-c1c(C)ccc3c(CCCOc4cccc5ccccc45)c(C(=O)O)n(c13)CCCCOC2 (single isomer, unassigned; enantiomer 1) [Example 188, 1,4-dimethyl-7-[3-(naphthalen-1-yloxy)propyl]-3-propyl-1,10,11,12,13,15-hexahydropyrazolo[4′,3′:9,10][1,6]oxazacycloundecino[8,7,6-hi]indole-8-carboxylic acid-N-ethylethanamine Salt (Enantiomer 1)] | 2.95e-06 | 6.61e-06 |  |  |  | 
